# Results taken from publication PMC12073449, “Development of a Mechanism of Action-Reflective Cell-Based Reporter Gene Assay for Measuring Bioactivities of Therapeutic Glucagon-like Peptide-2 Analogues” (Molecules, 2025).
# Ends that are not written are not given here.
# Tested on: HEK293-GLP-2R-Luc cells
substance,measurement,setting,value
HGEGTFSSELATILDALAARDFINWLIATKITDKKKKKK-NH2 [glepaglutide],log2 (TD/Ctrl) CYP1B1,,1.052
same,log2 (TD/Ctrl) CYP4V2,,−1.198
same,log2 (TD/Ctrl) CYP4 × 1,,−1.963
same,log2 (TD/Ctrl) TRPV1,Qvalue 0.001125,−1.038
same,log2 (TD/Ctrl) NEK8,Qvalue 0.001147,−1.057
same,log2 (TD/Ctrl) METTL25,Qvalue 0.001214,−1.045
same,log2 (TD/Ctrl) ITGA8,Qvalue 0.001396,−1.102
same,log2 (TD/Ctrl) UBOX5,Qvalue 0.00141,1.051
same,log2 (TD/Ctrl) CC2D2A,Qvalue 0.001438,−1.1174
same,log2 (TD/Ctrl) DERL3,Qvalue 0.001478,−1.237
same,log2 (TD/Ctrl) ADAM12,Qvalue 0.001549,1.112
same,log2 (TD/Ctrl) RBPMS2,Qvalue 0.001565,1.069
same,log2 (TD/Ctrl) RBM11,Qvalue 0.001608,1.143
same,log2 (TD/Ctrl) SLCO2A1,Qvalue 0.001637,1.773
same,log2 (TD/Ctrl) AMH,Qvalue 0.001638,−1.122
same,log2 (TD/Ctrl) EMP1,Qvalue 0.001666,1.518
same,log2 (TD/Ctrl) RNLS,Qvalue 0.001684,2.251
same,log2 (TD/Ctrl) AATK,Qvalue 0.001714,1.156
same,log2 (TD/Ctrl) ZSWIM4,Qvalue 0.001797,1.054
same,log2 (TD/Ctrl) NGEF,Qvalue 0.001858,1.549
same,log2 (TD/Ctrl) LOC124901228,Qvalue 0.002022,−1.299
same,log2 (TD/Ctrl) HILPDA,Qvalue 0.00213,−1.215
same,log2 (TD/Ctrl) GPRASP3,Qvalue 0.002224,−1.474
same,log2 (TD/Ctrl) SRGAP3,Qvalue 0.002313,−1.063
same,log2 (TD/Ctrl) PPEF1,Qvalue 0.002369,1.543
same,log2 (TD/Ctrl) BOK,Qvalue 0.002402,1.599
same,log2 (TD/Ctrl) PRR7,Qvalue 0.002734,1.209
same,log2 (TD/Ctrl) SAT1,Qvalue 0.002832,2.416
same,log2 (TD/Ctrl) SDHAF4,Qvalue 0.002952,1.018
same,log2 (TD/Ctrl) IL7R,Qvalue 0.003482,2.4
same,log2 (TD/Ctrl) RHOB,Qvalue 0.003482,2.852
same,log2 (TD/Ctrl) CCDC61,Qvalue 0.003634,1.663
same,log2 (TD/Ctrl) H2BC21,Qvalue 0.004109,1.259
same,log2 (TD/Ctrl) CXCL12,Qvalue 0.004272,−2.422
same,log2 (TD/Ctrl) UGT3A1,Qvalue 0.004706,3.069
same,log2 (TD/Ctrl) MYPN,Qvalue 0.005296,2.401
same,log2 (TD/Ctrl) PTPRN,Qvalue 0.005327,3.046
same,log2 (TD/Ctrl) RHBDF1,Qvalue 0.005404,1.083
same,log2 (TD/Ctrl) KLF2,Qvalue 0.005739,1.928
same,log2 (TD/Ctrl) SH2D2A,Qvalue 0.005953,2.922
same,log2 (TD/Ctrl) SYT4,Qvalue 0.005991,2.338
same,log2 (TD/Ctrl) NTRK2,Qvalue 0.006147,1.454
same,log2 (TD/Ctrl) PLPP2,Qvalue 0.006233,1.309
same,log2 (TD/Ctrl) ATG16L2,Qvalue 0.006489,1.087
same,log2 (TD/Ctrl) ASGR1,Qvalue 0.00679,2.135
same,log2 (TD/Ctrl) DHRS9,Qvalue 0.007207,2.367
same,log2 (TD/Ctrl) SH2D5,Qvalue 0.00738,1.053
same,log2 (TD/Ctrl) SLC30A3,Qvalue 0.007467,1.182
same,log2 (TD/Ctrl) SHANK2,Qvalue 0.007984,2.035
same,log2 (TD/Ctrl) NAA80,Qvalue 0.008009,1.249
same,log2 (TD/Ctrl) CLIP2,Qvalue 0.008212,1.052
same,log2 (TD/Ctrl) LOC128125822,Qvalue 0.008527,2.711
same,log2 (TD/Ctrl) RND1,Qvalue 0.008622,1.057
same,log2 (TD/Ctrl) SH3RF2,Qvalue 0.008648,1.516
same,log2 (TD/Ctrl) DUSP2,Qvalue 0.008669,3.424
same,log2 (TD/Ctrl) MAGED4,Qvalue 0.009809,−1.159
same,log2 (TD/Ctrl) MAP6,Qvalue 0.009857,1.691
same,log2 (TD/Ctrl) TMEM225B,Qvalue 0.010366,1.448
same,log2 (TD/Ctrl) CHRD,Qvalue 0.010428,1.261
same,log2 (TD/Ctrl) FNTB,Qvalue 0.011191,−1.039
same,log2 (TD/Ctrl) MARVELD3,Qvalue 0.011267,1.031
same,log2 (TD/Ctrl) FSTL4,Qvalue 0.011445,1.312
same,log2 (TD/Ctrl) POC1B-GALNT4,Qvalue 0.011547,−1.319
same,log2 (TD/Ctrl) GDPGP1,Qvalue 0.011565,−1.43
same,log2 (TD/Ctrl) CREG2,Qvalue 0.012071,1.949
same,log2 (TD/Ctrl) CERS4,Qvalue 0.01208,1.131
same,log2 (TD/Ctrl) ANKRD1,Qvalue 0.012462,2.953
same,log2 (TD/Ctrl) PLEKHN1,Qvalue 0.012462,2.21
same,log2 (TD/Ctrl) KRT75,Qvalue 0.012583,2.099
same,log2 (TD/Ctrl) ALDH1L2,Qvalue 0.012744,1.303
same,log2 (TD/Ctrl) GUCA1B,Qvalue 0.013456,1.026
same,log2 (TD/Ctrl) SH2D3A,Qvalue 0.013825,1.146
same,log2 (TD/Ctrl) CATSPERE,Qvalue 0.013837,−2.496
same,log2 (TD/Ctrl) TFEB,Qvalue 0.014032,1.085
same,log2 (TD/Ctrl) SCN2A,Qvalue 0.014161,−2.494
same,log2 (TD/Ctrl) FAM47E-STBD1,Qvalue 0.014365,6.132
same,log2 (TD/Ctrl) IL11,Qvalue 0.014439,2.543
same,log2 (TD/Ctrl) ICOSLG,Qvalue 0.015122,1.337
same,log2 (TD/Ctrl) HHIP,Qvalue 0.016047,1.114
same,log2 (TD/Ctrl) COL15A1,Qvalue 0.016322,2.733
same,log2 (TD/Ctrl) ADAMTSL1,Qvalue 0.016921,1.769
same,log2 (TD/Ctrl) AJM1,Qvalue 0.017304,−1.327
same,log2 (TD/Ctrl) RASGRP3,Qvalue 0.017723,1.426
same,log2 (TD/Ctrl) ZNF233,Qvalue 0.018109,−1.102
same,log2 (TD/Ctrl) ADM2,Qvalue 0.018318,1.127
same,log2 (TD/Ctrl) FMNL1,Qvalue 0.018333,1.446
same,log2 (TD/Ctrl) PHF24,Qvalue 0.018911,1.839
same,log2 (TD/Ctrl) MAP2,Qvalue 0.019619,−1.138
same,log2 (TD/Ctrl) BCL3,Qvalue 0.020272,1.728
same,log2 (TD/Ctrl) EXO5,Qvalue 0.020878,−1.023
same,log2 (TD/Ctrl) POLN,Qvalue 0.020952,−1.364
same,log2 (TD/Ctrl) C20orf204,Qvalue 0.021231,−1.777
same,log2 (TD/Ctrl) TMEM54,Qvalue 0.021231,1.072
same,log2 (TD/Ctrl) RYR1,Qvalue 0.021465,1.055
same,log2 (TD/Ctrl) PHKG1,Qvalue 0.021994,1.955
same,log2 (TD/Ctrl) KLF6,Qvalue 0.022289,1.402
same,log2 (TD/Ctrl) LRRTM4,Qvalue 0.022315,−1.285
same,log2 (TD/Ctrl) PHOSPHO2,Qvalue 0.023229,−1.059
same,log2 (TD/Ctrl) MICOS10-NBL1,Qvalue 0.023249,1.952
same,log2 (TD/Ctrl) PDE3A,Qvalue 0.023634,1.882
same,log2 (TD/Ctrl) LARGE2,Qvalue 0.023651,1.17
same,log2 (TD/Ctrl) HES7,Qvalue 0.024442,1.525
same,log2 (TD/Ctrl) VSTM2B,Qvalue 0.024619,1.668
same,log2 (TD/Ctrl) INSM1,Qvalue 0.02493,1.259
same,log2 (TD/Ctrl) SIK1,Qvalue 0.025061,1.255
same,log2 (TD/Ctrl) IQANK1,Qvalue 0.02555,−1.07
same,log2 (TD/Ctrl) TRABD2A,Qvalue 0.026368,1.121
same,log2 (TD/Ctrl) RAB20,Qvalue 0.026593,1.265
same,log2 (TD/Ctrl) ADAM8,Qvalue 0.026923,−1.632
same,log2 (TD/Ctrl) EGR2,Qvalue 0.027245,1.924
same,log2 (TD/Ctrl) ACTRT3,Qvalue 0.027976,−1.89
same,log2 (TD/Ctrl) CILP2,Qvalue 0.028089,1.014
same,log2 (TD/Ctrl) KCNJ4,Qvalue 0.028153,1.521
same,log2 (TD/Ctrl) NGFR,Qvalue 0.0305,1.083
same,log2 (TD/Ctrl) GPR146,Qvalue 0.031918,−1.284
same,log2 (TD/Ctrl) SLC2A9,Qvalue 0.032594,−1.825
same,log2 (TD/Ctrl) FIBIN,Qvalue 0.032833,−1.931
same,log2 (TD/Ctrl) INSC,Qvalue 0.033388,1.775
same,log2 (TD/Ctrl) TRPM4,Qvalue 0.034028,1.164
same,log2 (TD/Ctrl) TOR4A,Qvalue 0.034573,−1.123
same,log2 (TD/Ctrl) ANXA3,Qvalue 0.034821,1.046
same,log2 (TD/Ctrl) F2RL2,Qvalue 0.035979,2.195
same,log2 (TD/Ctrl) GFRA2,Qvalue 0.036382,1.989
same,log2 (TD/Ctrl) CHD5,Qvalue 0.036855,1.476
same,log2 (TD/Ctrl) IER5L,Qvalue 0.037055,1.227
same,log2 (TD/Ctrl) CORO1A,Qvalue 0.03809,1.157
same,log2 (TD/Ctrl) DMRT1,Qvalue 0.038243,2.578
same,log2 (TD/Ctrl) TMEM200A,Qvalue 0.038553,2.008
same,log2 (TD/Ctrl) BIRC3,Qvalue 0.038759,1.213
same,log2 (TD/Ctrl) GJB7,Qvalue 0.040011,−1.706
same,log2 (TD/Ctrl) PABIR3,Qvalue 0.044085,1.001
same,log2 (TD/Ctrl) DAB1,Qvalue 0.044461,1.527
same,log2 (TD/Ctrl) CLIC5,Qvalue 0.046355,1.134
same,log2 (TD/Ctrl) LOC124904248,Qvalue 0.046402,−1.239
same,log2 (TD/Ctrl) FOXD4,Qvalue 0.046871,−1.765
same,log2 (TD/Ctrl) SNAI2,Qvalue 0.046941,1.1
same,log2 (TD/Ctrl) ANKRD20A1,Qvalue 0.047154,1.015
same,log2 (TD/Ctrl) MVP,Qvalue 0.048413,1.066
same,log2 (TD/Ctrl) SHISA8,Qvalue 0.048554,1.031
same,log2 (TD/Ctrl) TBC1D3C,Qvalue 0.04891,−2.321
same,log2 (TD/Ctrl) CDH1,Qvalue 0.049404,1.135
same,log2 (TD/Ctrl) ZNF296,Qvalue 0.049596,1.005
same,log2 (TD/Ctrl) IRX4,Qvalue 1.00 × 10^−4,3.763
same,log2 (TD/Ctrl) LYPD6,Qvalue 1.04 × 10^−4,−1.124
same,log2 (TD/Ctrl) TGFB1,Qvalue 1.04 × 10^−9,1.683
same,log2 (TD/Ctrl) SMOX,Qvalue 1.04 × 10^−10,1.479
same,log2 (TD/Ctrl) GPR3,Qvalue 1.05 × 10^−12,3.013
same,log2 (TD/Ctrl) PMAIP1,Qvalue 1.07 × 10^−13,1.02
same,log2 (TD/Ctrl) CCN1,Qvalue 1.09 × 10^−13,1.83
same,log2 (TD/Ctrl) BAX,Qvalue 1.10 × 10^−10,−1.136
same,log2 (TD/Ctrl) ACTBL2,Qvalue 1.10 × 10^−21,2.68
same,log2 (TD/Ctrl) CREM,Qvalue 1.18 × 10^−18,1.319
same,log2 (TD/Ctrl) TFPI,Qvalue 1.19 × 10^−6,1.103
same,log2 (TD/Ctrl) CFAP44,Qvalue 1.21 × 10^−4,−1.2179
same,log2 (TD/Ctrl) SPRY4,Qvalue 1.22 × 10^−4,1.583
same,log2 (TD/Ctrl) GCNT1,Qvalue 1.22 × 10^−6,−1.113
same,log2 (TD/Ctrl) DUSP1,Qvalue 1.23 × 10^−13,2.837
same,log2 (TD/Ctrl) MAFK,Qvalue 1.26 × 10^−13,1.561
same,log2 (TD/Ctrl) GEM,Qvalue 1.30 × 10^−33,2.896
same,log2 (TD/Ctrl) EML2,Qvalue 1.31 × 10^−5,1.098
same,log2 (TD/Ctrl) ECEL1,Qvalue 1.32 × 10^−6,2.018
same,log2 (TD/Ctrl) NFATC1,Qvalue 1.32 × 10^−9,1.146
same,log2 (TD/Ctrl) LBHD1,Qvalue 1.34 × 10^−6,−1.453
same,log2 (TD/Ctrl) GNG4,Qvalue 1.34 × 10^−10,1.107
same,log2 (TD/Ctrl) GFPT2,Qvalue 1.35 × 10^−4,1.08
same,log2 (TD/Ctrl) HOXB6,Qvalue 1.35 × 10^−4,−1.274
same,log2 (TD/Ctrl) VGF,Qvalue 1.36 × 10^−15,2.99
same,log2 (TD/Ctrl) USP4,Qvalue 1.38 × 10^−4,1.002
same,log2 (TD/Ctrl) CASD1,Qvalue 1.39 × 10^−4,−1.007
same,log2 (TD/Ctrl) SGK1,Qvalue 1.39 × 10^−7,1.322
same,log2 (TD/Ctrl) PHLDA1,Qvalue 1.40 × 10^−4,1.224
same,log2 (TD/Ctrl) NDRG1,Qvalue 1.40 × 10^−27,1.674
same,log2 (TD/Ctrl) EMILIN2,Qvalue 1.41 × 10^−13,1.304
same,log2 (TD/Ctrl) TPM4,Qvalue 1.41 × 10^−16,1.086
same,log2 (TD/Ctrl) FOSB,Qvalue 1.44 × 10^−4,2.796
same,log2 (TD/Ctrl) IER3,Qvalue 1.44 × 10^−12,1.677
same,log2 (TD/Ctrl) AHR,Qvalue 1.47 × 10^−8,1.016
same,log2 (TD/Ctrl) SPINT1,Qvalue 1.47 × 10^−8,1.307
same,log2 (TD/Ctrl) PTP4A1,Qvalue 1.47 × 10^−41,1.5
same,log2 (TD/Ctrl) FOSL2,Qvalue 1.49 × 10^−13,1.385
same,log2 (TD/Ctrl) GADD45A,Qvalue 1.52 × 10^−19,1.573
same,log2 (TD/Ctrl) FOS,Qvalue 1.54 × 10^−5,3.22
same,log2 (TD/Ctrl) SMAD6,Qvalue 1.54 × 10^−5,−1.023
same,log2 (TD/Ctrl) FADS2,Qvalue 1.54 × 10^−10,−1.136
same,log2 (TD/Ctrl) DNAJB5,Qvalue 1.56 × 10^−4,1.316
